Our source for the IC50 and inhibition in vivo values is patent US4970210A, “Triazinone lipoxygenase compounds” (Abbott Laboratories, priority 1988, dated 1990).

In general, inhibition in vivo refers to the drop in the measured response relative to a control, in per cent. Low readings indicate little suppression, high ones strong suppression.

pIC50: −log10 of the molar value.

For the first assay, the target named is T1, 5-lipoxygenase (Rattus norvegicus, UniProt P12527).
T1 construct: 20,000×g supernatant from homogenized RBL-1 cells; endogenous in cells; host or cells: RBL-1 cells (20,000×g supernatant of homogenate)
T1 sequence (P12527 1-673): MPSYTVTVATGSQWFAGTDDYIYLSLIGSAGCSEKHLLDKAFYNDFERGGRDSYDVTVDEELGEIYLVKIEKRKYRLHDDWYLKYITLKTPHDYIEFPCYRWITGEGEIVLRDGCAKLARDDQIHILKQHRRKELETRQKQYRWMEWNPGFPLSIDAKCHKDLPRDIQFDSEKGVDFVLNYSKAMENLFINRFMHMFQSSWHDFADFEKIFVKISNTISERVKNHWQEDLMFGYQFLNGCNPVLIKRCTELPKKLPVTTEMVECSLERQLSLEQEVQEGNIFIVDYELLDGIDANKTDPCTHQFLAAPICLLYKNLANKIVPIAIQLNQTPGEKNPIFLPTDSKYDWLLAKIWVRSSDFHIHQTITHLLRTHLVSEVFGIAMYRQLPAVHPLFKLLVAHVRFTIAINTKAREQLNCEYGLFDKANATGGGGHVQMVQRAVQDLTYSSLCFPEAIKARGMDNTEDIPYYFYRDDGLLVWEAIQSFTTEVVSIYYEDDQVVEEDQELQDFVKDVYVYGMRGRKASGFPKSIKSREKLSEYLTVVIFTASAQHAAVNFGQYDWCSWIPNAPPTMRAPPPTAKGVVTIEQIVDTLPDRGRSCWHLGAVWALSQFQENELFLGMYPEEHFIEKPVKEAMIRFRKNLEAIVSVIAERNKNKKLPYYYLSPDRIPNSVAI
The assay is described as follows: Inhibition of 5-lipoxygenase (20,000×g supernatant from homogenized RBL-1 cells). In kind it is biochemical. The following applies: in vitro, read-out: IC50 (concentration of compound producing 50% enzyme inhibition). The protocol:
Inhibition of 5-lipoxygenase activity was determined using the 20,000×g supernatant from homogenized RBL-1 cells in a similiar manner as that described by Dyer and coworkers (Dyer, R. D.; Haviv., F.; Hanel, A. M.; Bornemeier, D. A.; Carter, G. W. Fed. Proc.,Fed.Am.Soc. Exp. Biol. 1984, 43,1462a). IC50 values (concentration of compound producing 50% enzyme inhibition) were calculated by linear regression analysis of percentage inhibition versus log inhibitor concentration plots.
As for `CC(C)C1CN(c2ccccc2)NC(=O)N1` (racemic) [Example 82, D,L-5-i-propyl-1-phenyl-2H,4H-tetrahydro-1,2,4-triazin-3-one], the pIC50 is 5.15. On the same count and under the same terms, as for `CCCCC1CN(c2ccccc2)NC(=O)N1` (racemic) [Example 83, D,L-5-n-butyl-1-phenyl-2H 4H-tetrahydro-1,2,4-triazin-3-one], the figure is 5.70. Regarding `CC1CN(c2cccc(Cl)c2)NC(=O)N1` (racemic) [Example 85, D,L-5-methyl-1-(3-chlorophenyl)-2H,4H-tetrahydro-1,2,4-triazin-3-one], the pIC50 is 5.52. On to `CCC1CN(c2ccccc2)NC(=O)N1` (racemic) [Example 86, D,L-5-ethyl-1-phenyl-2H,4H-tetrahydro-1,2,4-triazin-3-one], for which the pIC50 was 5.15.

For the compound `N#Cc1cccc(N2CCCC(=O)N2)c1` [Example 1, 1-(3'-cyanophenyl)-2H-tetrahydropyridazin-3-one], the pIC50 was 4.96. Consider `COc1cccc(N2CCCC(=O)N2)c1` [Example 3, 1-(3'-methoxyphenyl)-2H-tetrahydropyridazin-3-one], for which the pIC50 is 5.22. The same measure, in the same setting: under `O=C1CCCN(c2ccc(Oc3ccccc3)cc2)N1` [Example 6, 1-(4'-phenoxyphenyl)-2H-tetrahydropyridazin-3-one] stands 5.70; under `O=C1CCCN(c2cccc(C(F)(F)F)c2)N1` [Example 8, 1-(3'-trifluoromethylphenyl)-2H-tetrahydropyridazin-3-one], 5.30; under `CCc1cccc(N2CCCC(=O)N2)c1` [Example 10, 1-(3'-ethylphenyl)-2H-tetrahydropyridazin-3-one], 5.52. Same read-out and setting: as for `CCCCCCCCc1ccc(N2CCCC(=O)N2)cc1` [Example 15, 1-(4'-octylphenyl)-2H-tetrahydropyridazin-3-one], the figure is 5.22; as for `CCOC(=O)c1cccc(N2CCCC(=O)N2)c1` [Example 16, 1-(3'-ethoxycarbonylphenyl)-2H-tetrahydropyridazin-3-one], 5.30; as for `Cc1cc(C)cc(N2CCCC(=O)N2)c1` [Example 24, 1-(3',5'-dimethylphenyl)-2H-tetrahydropyridazin-3-one], 5.52.

For the compound `O=C1CCCN(c2cc(Cl)cc(Cl)c2)N1` [Example 26, 1-(3',5'-dichlorophenyl)-2H-tetrahydropyridazin-3-one], the pIC50 was 6.00. Same read-out and setting: under `CCCCC1CCN(c2ccccc2)NC1=O` (stereo not drawn) [Example 38, 1-phenyl-4-butyl-2H-tetrahydropyridazin-3-one] stands 6.22; under `CCCCC1CC(=O)NN(c2ccccc2)C1` (stereo not drawn) [Example 40, 1-phenyl-5-butyl-2H-tetrahydropyridazin-3-one], 6.30. On the same count and under the same terms, under `O=C1CCCN(c2cccc(Cl)c2)N1` [Example 46, 1-(3'-chlorophenyl)-2H-tetrahydropyridazin-3-one] stands 5.60.

`O=C1CCCN(c2ccccc2F)N1` [Example 51, 1-(2'-fluorophenyl)-2H-tetrahydropyridazin-3-one]: the pIC50 is 5.00.

`O=C1NCCN(c2ccccc2)N1` [Example 68, 1-(phenyl)-2 H,4 H-tetrahydro-1,2,4-triazin-3-one]: the pIC50 was 4.68. The same measure, in the same setting: under `Cc1cccc(N2CCNC(=O)N2)c1` [Example 70, 1-(3'-methylphenyl)-2 H,4 H-tetrahydro-1,2,4-triazin-3-one] stands 4.82. Take `O=C1NCCN(c2cccc(Br)c2)N1` [Example 73, 1-(3'-bromophenyl)-2 H,4 H-tetrahydro-1,2,4-triazin-3-one]: the pIC50 was 5.30.

Regarding `CCc1cccc(N2CCNC(=O)N2)c1` [Example 74, 1-(3'-ethylphenyl)-2 H,4 H-tetrahydro-1,2,4-triazin-3-one], the pIC50 was 4.89. Still for that read-out and setting: as for `CSc1cccc(N2CCNC(=O)N2)c1` [Example 75, 1-(3'-methylthiophenyl)-2 H,4 H-tetrahydro-1,2,4-triazin-3-one], the figure is 4.85. Same read-out and setting: as for `O=C1NCCN(c2cccc(C(F)(F)F)c2)N1` [Example 76, 1-(3'-trifluoromethylphenyl)-2 H,4 H-tetrahydro-1,2,4-triazin-3-one], the figure is 4.77; as for `O=C1NCCN(c2cccc(Cl)c2)N1` [Example 78, 1-(3'-chlorophenyl)-2 H,4 H, tetrahydro-1,2,4-triazin-3-one], 5.22; as for `O=C1NCCN(c2cccc(OCc3ccccc3)c2)N1` [Example 79, 1-(3'-benzyloxyphenyl)-2 H,4 H-tetrahydro-1,2,4-triazin-3-one], 6.00. The same measure, in the same setting: under `Cc1cc(C)cc(N2CCNC(=O)N2)c1` [Example 80, 1-(3',5'-dimethylphenyl)-2 H,4 H-tetrahydro-1,2,4-triazin-3-one] stands 4.92. With `CC1(C)CN(c2ccccc2)NC(=O)N1` [Example 87, 5,5-dimethyl-1-phenyl-2H,4H-tetrahydro-1,2,4-triazin-3-one], the pIC50 is 5.15. Still for that read-out and setting: under `O=C1NCCN(c2cccc(F)c2)N1` [Example 88, 1-(3-fluorophenyl)-2H,4H-tetrahydro-1,2,4-triazin-3-one] stands 4.72.

Turning to `O=C1NCCN(c2ccccn2)N1` [Example 90, 1-(2-pyridyl)-2H,4H-tetrahydro-1,2,4-triazin-3-one], the pIC50 was 4.59. As for `O=C1NN(c2ccccc2)CCN1Cc1ccccc1` [Example 99, 4-Benzyl-1-phenyl-2H,4H-tetrahydro-1,2,4-triazin-3-one], the pIC50 is 5.10. Still for that read-out and setting: as for `S=C1NCCN(c2ccccc2)N1` [Example 102, 1-Phenyl-2H,4H-tetrahydro-1,2,4-triazin-3-thione], the figure is 4.77; as for `S=C1NCCN(c2cccc(Cl)c2)N1` [Example 103, 1-(3-Chlorophenyl)-2H,4H-tetrahydro-1,2,4-triazin-3-thione], 5.30; as for `Cc1cccc(N2CCCC(=S)N2)c1` [Example 106, 1-(3'-methylphenyl)-2H-tetrahydro-pyridazin-3-thione], 6.00. The same measure, in the same setting: under `CC(=O)N1CCN(c2ccccc2)NC1=O` [Example 107, 4-Acetyl-1-phenyl-2H,4H-tetrahydro-1,2,4-triazin-3-one] stands 5.52; under `CC(C)C(=O)N1CCN(c2ccccc2)NC1=O` [Example 109, 4-Isobutyryl-1-phenyl-2H,4H-tetrahydro-1,2,4-triazin-3-one], 6.00; under `CC(=O)N1CCN(c2cccc(Cl)c2)NC1=O` [Example 111, 4-Acetyl-1-(3-chlorophenyl)-2H,4H-tetrahydro-1,2,4-triazin-3-one], 6.00. Same read-out and setting: under `O=C1CCCN(c2ccccc2)N1COCc1ccccc1` [Example 113, 1-phenyl-2-benzyloxymethyl-2 H-tetrahydropyridazin-3-one] stands 4.15.

For a further assay, the system named is leukotriene biosynthesis. The experiment in a line: In vivo inhibition of leukotriene biosynthesis after oral administration, rat peritoneal anaphylaxis model. The following applies: 0.25 h, 200 micro mol/kg oral dose, one hour prior to antigen challenge, peritoneal fluid 15 minutes after challenge, vs mean of control group. The protocol: Inhibition of the biosynthesis of leukotrienes in vivo after oral administration of compound was determined using a rat peritoneal anaphylaxis model in a similiar manner as that described by Young and coworkers (Young, P. R.; Dyer, R. D.; Carter, G. W. Fed. Proc., Fed. Am Soc.Exp. Biol. 1985, 44 1185). In this model rats were injected intraperitoneally (ip) with rabbit antibody to bovine serum albumin (BSA) and three hours later injected ip with BSA to induce an antigen-antibody response. Rats were sacrificed 15 minutes after this challenge and the peritoneal fluids were collected and analyzed for leukotriene levels. Test compounds were administered by gauge one hour prior to the antigen challenge. Percent inhibition values were determined by comparing the treatment group to the mean of the control group.
In turn, `CC1CN(c2ccccc2)NC(=O)N1` (racemic) [Example 81, D,L-5-methyl-1-phenyl-2H,4H-tetrahydro-1,2,4-triazin-3-one] gave an inhibition in vivo at 200 µmol/kg of 84%. In turn, `O=C1NCCN(c2ccccc2)N1` [Example 68, 1-(phenyl)-2 H,4 H-tetrahydro-1,2,4-triazin-3-one] registered an inhibition in vivo at 200 µmol/kg of 85%. `Cc1cccc(N2CCNC(=O)N2)c1` [Example 70, 1-(3'-methylphenyl)-2 H,4 H-tetrahydro-1,2,4-triazin-3-one] had an inhibition in vivo at 200 µmol/kg of 66%. On the same count and under the same terms, under `O=C1NCCN(c2cccc(Br)c2)N1` [Example 73, 1-(3'-bromophenyl)-2 H,4 H-tetrahydro-1,2,4-triazin-3-one] stands 46%; under `CCc1cccc(N2CCNC(=O)N2)c1` [Example 74, 1-(3'-ethylphenyl)-2 H,4 H-tetrahydro-1,2,4-triazin-3-one], 58%; under `CSc1cccc(N2CCNC(=O)N2)c1` [Example 75, 1-(3'-methylthiophenyl)-2 H,4 H-tetrahydro-1,2,4-triazin-3-one], 73%.

`O=C1NCCN(c2cccc(Cl)c2)N1` [Example 78, 1-(3'-chlorophenyl)-2 H,4 H, tetrahydro-1,2,4-triazin-3-one] had an inhibition in vivo at 200 µmol/kg of 80%. Still for that read-out and setting: under `CC(=O)N1CCN(c2cccc(Cl)c2)NC1=O` [Example 111, 4-Acetyl-1-(3-chlorophenyl)-2H,4H-tetrahydro-1,2,4-triazin-3-one] stands 74%.
